# In ChEMBL document CHEMBL1201862, “PubChem BioAssay data set” (2004):
#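 All cell lines were grown in 96-well plates and treated with compound for 48 hours. At the GI50, growth is halved.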 Activity calls are given as the source filed them. No stated cut-off is given here; in the data, active = GI50 up to about 1.1 µM and inactive = higher.
# What was measured:
# Experiment in all cases: NCI tumour cell line growth inhibition, 48 h
# A498 = system: A498
# EKVX = system: EKVX
# HCT-116 = system: HCT-116
# Hs-578T = system: Hs-578T
# MDA-MB-231 = system: MDA-MB-231
# MOLT-4 = system: MOLT-4
# Malme-3M = system: Malme-3M
# NCI-H23 = system: NCI-H23
# NCI-H460 = system: NCI-H460
# NCI/ADR-RES = system: NCI/ADR-RES
# OVCAR-3 = system: OVCAR-3
# OVCAR-4 = system: OVCAR-4
# OVCAR-8 = system: OVCAR-8
# RXF 393 = system: RXF 393
# SF-268 = system: SF-268
# SK-MEL-28 = system: SK-MEL-28
# SK-MEL-2 = system: SK-MEL-2
# SW-620 = system: SW-620
# TK-10 = system: TK-10
# UACC-62 = system: UACC-62
Structure (SMILES),GI50 (A498),GI50 (EKVX),GI50 (HCT-116),GI50 (Hs-578T),GI50 (MDA-MB-231),GI50 (MOLT-4),GI50 (Malme-3M),GI50 (NCI-H23),GI50 (NCI-H460),GI50 (NCI/ADR-RES),GI50 (OVCAR-3),GI50 (OVCAR-4),GI50 (OVCAR-8),GI50 (RXF 393),GI50 (SF-268),GI50 (SK-MEL-28),GI50 (SK-MEL-2),GI50 (SW-620),GI50 (TK-10),GI50 (UACC-62)
COC(=O)C(=O)C(C(=O)C(=O)Nc1ccc(C)c(C)c1)c1nc2ccc([N+](=O)[O-])cc2nc1O (stereo not given),> 100 µM (inactive),99.5 µM (inactive),> 100 µM (inactive),> 100 µM (inactive),> 100 µM (inactive),> 100 µM (inactive),> 100 µM (inactive),> 100 µM (inactive),> 100 µM (inactive),> 100 µM (inactive),> 100 µM (inactive),> 100 µM (inactive),> 100 µM (inactive),> 100 µM (inactive),> 100 µM (inactive),> 100 µM (inactive),> 100 µM (inactive),> 100 µM (inactive),> 100 µM (inactive),> 100 µM (inactive)
CC(=O)N(CN1C(=O)CCC1C(=O)O)c1ccccc1Cl (stereo not given),> 100 µM (inactive),> 100 µM (inactive),> 100 µM (inactive),> 100 µM (inactive),> 100 µM (inactive),> 100 µM (inactive),> 100 µM (inactive),> 100 µM (inactive),> 100 µM (inactive),> 100 µM (inactive),> 100 µM (inactive),> 100 µM (inactive),> 100 µM (inactive),> 100 µM (inactive),> 100 µM (inactive),> 100 µM (inactive),> 100 µM (inactive),> 100 µM (inactive),> 100 µM (inactive),> 100 µM (inactive)
O=C(O)c1cscc1Cc1cccs1,> 100 µM (inactive),> 100 µM (inactive),> 100 µM (inactive),> 100 µM (inactive),> 100 µM (inactive),> 100 µM (inactive),> 100 µM (inactive),> 100 µM (inactive),> 100 µM (inactive),> 100 µM (inactive),> 100 µM (inactive),> 100 µM (inactive),> 100 µM (inactive),> 100 µM (inactive),> 100 µM (inactive),> 100 µM (inactive),> 100 µM (inactive),> 100 µM (inactive),> 100 µM (inactive),> 100 µM (inactive)
N/C(=N\Nc1cccc(Cl)c1)c1cccnc1,22.2 µM (inactive),40.6 µM (inactive),29.9 µM (inactive),> 100 µM (inactive),81.1 µM (inactive),28.3 µM (inactive),97.9 µM (inactive),43.5 µM (inactive),35.2 µM (inactive),38.7 µM (inactive),13.5 µM (inactive),13.7 µM (inactive),> 78.3 µM (inactive),23.1 µM (inactive),65.3 µM (inactive),72.8 µM (inactive),36.9 µM (inactive),54.2 µM (inactive),28.6 µM (inactive),22.8 µM (inactive)
CC(=O)N1C(CCc2ccccc2)CC(C)(C=O)C1Cc1ccc(O[Si](C(C)C)(C(C)C)C(C)C)cc1 (stereo not given),2.87 µM (inactive),4.75 µM (inactive),2.55 µM (inactive),3.28 µM (inactive),4.79 µM (inactive),1.06 µM (active),14.2 µM (inactive),5.53 µM (inactive),2.96 µM (inactive),8.81 µM (inactive),4.8 µM (inactive),3.7 µM (inactive),4.39 µM (inactive),1.69 µM (inactive),4.19 µM (inactive),6.32 µM (inactive),3.48 µM (inactive),3.21 µM (inactive),3.68 µM (inactive),4.68 µM (inactive)
O=C1CC2OCC=C3CN4CCC5(C(=O)O)C(N1)C2C3CC45 (stereo not given),> 100 µM (inactive),> 100 µM (inactive),> 100 µM (inactive),> 100 µM (inactive),> 100 µM (inactive),> 100 µM (inactive),> 100 µM (inactive),> 100 µM (inactive),> 100 µM (inactive),> 100 µM (inactive),> 100 µM (inactive),> 100 µM (inactive),> 100 µM (inactive),> 100 µM (inactive),> 100 µM (inactive),> 100 µM (inactive),> 100 µM (inactive),> 100 µM (inactive),> 100 µM (inactive),> 100 µM (inactive)
O=C1NC(=O)C2=C1CCC2O (stereo not given),> 100 µM (inactive),> 100 µM (inactive),> 100 µM (inactive),> 100 µM (inactive),> 100 µM (inactive),> 100 µM (inactive),> 100 µM (inactive),> 100 µM (inactive),> 100 µM (inactive),> 100 µM (inactive),> 100 µM (inactive),> 100 µM (inactive),> 100 µM (inactive),> 100 µM (inactive),> 100 µM (inactive),> 100 µM (inactive),> 100 µM (inactive),> 100 µM (inactive),> 100 µM (inactive),> 100 µM (inactive)
Cc1nc(C(N)=S)sc1C(=O)C/C(=N/N)C(=O)Nc1cccc(Cl)c1C,> 100 µM (inactive),> 100 µM (inactive),> 100 µM (inactive),> 100 µM (inactive),> 100 µM (inactive),> 100 µM (inactive),> 100 µM (inactive),> 100 µM (inactive),> 100 µM (inactive),> 100 µM (inactive),> 100 µM (inactive),> 100 µM (inactive),> 100 µM (inactive),> 100 µM (inactive),> 100 µM (inactive),> 100 µM (inactive),> 100 µM (inactive),> 100 µM (inactive),> 100 µM (inactive),> 100 µM (inactive)
Oc1c(CN2CCOCC2)ccc(CN2CCOCC2)c1O,> 100 µM (inactive),50.8 µM (inactive),38 µM (inactive),> 100 µM (inactive),> 100 µM (inactive),24.2 µM (inactive),31 µM (inactive),36.6 µM (inactive),25.7 µM (inactive),30.1 µM (inactive),21.2 µM (inactive),> 100 µM (inactive),47.2 µM (inactive),29.2 µM (inactive),30.9 µM (inactive),61.5 µM (inactive),29 µM (inactive),83.6 µM (inactive),47.2 µM (inactive),25.2 µM (inactive)
CC(C)(C)c1ccc(O)c(CN(Cc2cc(C(C)(C)C)ccc2O)c2ccccc2)c1,14.8 µM (inactive),16.5 µM (inactive),19.4 µM (inactive),18.6 µM (inactive),16.9 µM (inactive),15.6 µM (inactive),15.8 µM (inactive),21.1 µM (inactive),16.5 µM (inactive),19.1 µM (inactive),15.6 µM (inactive),19.2 µM (inactive),19.1 µM (inactive),13.6 µM (inactive),17.6 µM (inactive),17.5 µM (inactive),17.6 µM (inactive),18.5 µM (inactive),17.1 µM (inactive),14.7 µM (inactive)
O=C(N/N=C\c1ccc([N+](=O)[O-])s1)c1ccncc1,23.4 µM (inactive),20.7 µM (inactive),5.07 µM (inactive),15.8 µM (inactive),18.8 µM (inactive),19.9 µM (inactive),8.18 µM (inactive),16.2 µM (inactive),6.65 µM (inactive),22.8 µM (inactive),2.82 µM (inactive),15 µM (inactive),14.7 µM (inactive),16.9 µM (inactive),13.6 µM (inactive),35.3 µM (inactive),18.2 µM (inactive),10.8 µM (inactive),23.1 µM (inactive),10.7 µM (inactive)
CCOC(=O)Oc1ccc2c(c1)c(=O)c1c(NCCN(CC)CC)ccc3nnn2c31,6.52 µM (inactive),6.41 µM (inactive),0.405 µM (active),5.11 µM (inactive),2.48 µM (inactive),< 0.0166 µM (active),2.78 µM (inactive),2.48 µM (inactive),< 0.0209 µM (active),2.39 µM (inactive),4.46 µM (inactive),2.55 µM (inactive),0.577 µM (active),6.08 µM (inactive),1.43 µM (inactive),11.7 µM (inactive),13.2 µM (inactive),0.438 µM (active),3.19 µM (inactive),11.5 µM (inactive)
C=C1CC2(C[C@@H](c3ccccc3)O[C@@H](c3ccccc3)C2)OC1=O (stereo not given in full),9.95 µM (inactive),13 µM (inactive),1.9 µM (inactive),2.31 µM (inactive),2.15 µM (inactive),1.95 µM (inactive),1.89 µM (inactive),2.64 µM (inactive),10.2 µM (inactive),3.06 µM (inactive),2.36 µM (inactive),5.7 µM (inactive),2.49 µM (inactive),1.94 µM (inactive),7.31 µM (inactive),1.86 µM (inactive),3.98 µM (inactive),1.67 µM (inactive),1.8 µM (inactive),2.51 µM (inactive)
Clc1ccc(C(c2ccc(Cl)cc2)N2CCNCC2)cc1,1.78 µM (inactive),3.02 µM (inactive),1.73 µM (inactive),2.74 µM (inactive),2.09 µM (inactive),1.87 µM (inactive),1.58 µM (inactive),5.24 µM (inactive),2.05 µM (inactive),3.1 µM (inactive),1.9 µM (inactive),2.48 µM (inactive),2.07 µM (inactive),4.22 µM (inactive),4.95 µM (inactive),1.81 µM (inactive),1.85 µM (inactive),2.22 µM (inactive),1.64 µM (inactive),1.77 µM (inactive)
